# What was measured:
# Format in all cases: physicochemical
# [1] = Viscosity measurement with AR Rheometer (AR-G2) of the compounds of Examples 1-11; details: 25° C., after allowing to stand for 12 hours
# Protocol: (§1) The amphipathic compound according to the present invention is in a liquid or a semi-solid state with low viscosity within relatively a wide temperature range. The amphipathic compound according to the present invention preferably has viscosity of 11 Pa·s or less, generally 10 Pa·s or less, more preferably 4.0 Pa·s or less (e.g., 3.5 Pa·s or less), and further preferably 2.0 Pa·s or less, as measured using a viscometer at 25° C., for example. Such measured viscosity is typically measured at a shear rate of 105.7 l/s. To obtain such a measured value, an AR Rheometer (AR-G2, TA Instrument) or a viscosity and viscoelasticity measuring apparatus MARS (Thermo Fisher Scientific K.K.) can be used as a viscometer.
# The viscosity of each of the compounds shown in the Examples 1-11 was measured using AR Rheometer (AR-G2, TA Instrument) after allowing to stand at the temperature of 25° C. for 12 hours.
# [2] = Liquid crystal formation in compound/water system, analysed by small-angle X-ray scattering (SAXS); details: room temperature (25° C.); for Type of liquid crystal formed (SAXS peak ratio): 50 wt % (water-excess condition); for Lattice constant (ac) of the cubic liquid crystal: SAXS
# Description: Whether or not a liquid crystal structure has a cubic lattice may be determined by a small-angle X-ray scattering (SAXS) method, for the purpose of confirming whether or not it is cubic liquid crystal. First, an amphipathic compound/water system sample with a predetermined concentration can be added to an X-ray capillary tube made of quartz, for example, and the capillary tube is sealed with an oxy-fuel burner, and subjected to SAXS assay.
# Ratio of Pn3m Cubic Liquid Crystal: √{square root over (2)}: √{square root over (3)}: √{square root over (4)}: √{square root over (6)}: √{square root over (8)}: √{square root over (9)}: √{square root over (10)}: , , , [Mathematical expression 1] Ratio of Ia3d Cubic Liquid Crystal: √{square root over (3)}: √{square root over (4)}: √{square root over (7)}: √{square root over (8)}: √{square root over (10)}: √{square root over (11)}: , , , [Mathematical expression 2] Ratio of Im3m Cubic Liquid Crystal: √{square root over (2)}: √{square root over (4)}: √{square root over (6)}: √{square root over (8)}: √{square root over (10)}: √{square root over (12)}: √{square root over (14)}: , , , [Mathematical expression 3]
# A peak value is calculated from SAXS data and then the reciprocal ratio is found therefrom according to a method known by persons skilled in the art, so that the space group and the lattice constant can be easily determined.
# Mono-O-(5,9,13,17-tetramethyloctadec-4-enoyl)pentaerythritol and pure water were introduced into a mixing device at the concentration of 50 wt % Mono-O-(5,9,13,17-tetramethyloctadec-4-enoyl)pentaerythritol (water-excess condition), and incubation thereof was carried out while performing 100 or more times of mixing operations at room temperature (25° C.) over the period of 24 hours. Thus, a homogeneously mixed sample of mono-O-(5,9,13,17-tetramethyloctadec-4-enoyl)pentaerythritol/water system was obtained. This sample of mono-O-(5,9,13,17-tetramethyloctadec-4-enoyl)pentaerythritol/water system appeared to be a white turbid gel composition.
# Subsequently, the thus obtained sample of mono-O-(5,9,13,17-tetramethyloctadec-4-enoyl)pentaerythritol/water system was confirmed to be a cubic liquid crystal by small-angle x-ray scattering (SAXS). The sample of mono-O-(5,9,13,17-tetramethyloctadec-4-enoyl)pentaerythritol/water system was introduced into a quartz X-ray capillary tube, the tip of the capillary was sealed using an oxygen burner, and the capillary tube was subjected to the SAXS analysis. The NANO-Viewer nano-scale X-ray structure analysis equipment (Rigaku) was used for SAXS analysis. SAXS analysis was performed by X-ray irradiation at room temperature (25° C.), 40 kV, 50 mA, wavelength λ=0.1542 nm (Cu-Kα) for 15 min.
# [3] = Viscosity measurement with viscosity and viscoelasticity measuring apparatus MARS (Example 179); details: 25° C., shear velocity 105.7 s^−1, MARS
# Protocol: as §1
# The viscosities of the amphiphilic compounds synthesized above were measured at 25° C. and at a shear velocity of 105.7 s^−1 using a viscosity and viscoelasticity measuring apparatus MARS (Thermo Fisher Scientific).
Compound,Viscosity [1] [Pa·s],Lattice constant (ac) of the cubic liquid crystal [2] [nm],Viscosity (Pas · sec) [3] [Pas · sec],Type of liquid crystal formed (SAXS peak ratio) [2]
"CC(=CCCCOC[C@H](O)[C@H](O)CO)CCCC(C)CCCC(C)CCCC(C)C (some centres unmarked) [1-O-(5,9,13,17-tetramethyloctadec-4-enyl)erythritol]",2.3,–,–,reverse hexagonal liquid crystal
"CC(=CCCC(=O)OCC(O)CO)CCCC(C)CCCC(C)CCCC(C)C (centres unmarked) [Example 3, mono-O-(5,9,13,17-tetramethyloctadec-4-enoyl)glycerol]",–,–,–,cubic liquid crystal that belong to the crystallographic space group Pn3m
"CC(=CCCCOCC(CO)(CO)CO)CCCC(C)CCCC(C)CCCC(C)C (centres unmarked) [Example 10, mono-O-(5,9,13,17-tetramethyloctadec-4-enyl)pentaerythritol]",1.9,–,–,reverse hexagonal liquid crystal
"CC(=CCCCOCC(O)CO)CCCC(C)CCCC(C)CCCC(C)C (centres unmarked) [Example 31, mono-O-(5,9,13,17-tetramethyloctadec-4-enyl)glycerol]",–,–,0.44,–
"CC(=CCCCOCC(O)COCC(O)CO)CCCC(C)CCCC(C)CCCC(C)C (centres unmarked) [Example 32, mono-O-(5,9,13,17-tetramethyloctadec-4-enyl)diglycerol]",–,–,–,cubic liquid crystal that belong to the crystallographic space group Pn3m
"CC(=CC(=O)OCC(O)CO)CCCC(C)CCCC(C)CCCC(C)C (centres unmarked) [Example 65, mono-O-(3,7,11,15-tetramethylhexadec-2-enoyl)glycerol]",–,–,1.1,–
"CC(=CCOCC(O)CO)CCCC(C)CCCC(C)CCCC(C)C (centres unmarked) [Example 80, mono-O-(3,7,11,15-tetramethylhexadec-2-enyl)glycerol]",–,–,0.45,–
"CC(=CCCCOC1OCC(O)C(O)C1O)CCCC(C)CCCC(C)C [Example 103, 1-O-(5,9,13-trimethyltetradec-4-enyl)-D-xylopyranoside]",–,–,–,cubic liquid crystal that belong to the crystallographic space group Pn3m
"CC(=CCCCOCC(O)CO)CCCC(C)CCCC(C)C (centres unmarked) [Example 107, mono-O-(5,9,13-trimethyltetradec-4-enyl)glycerol]",–,–,–,reverse hexagonal liquid crystal
"CC(=CCCCOCC(CO)(CO)CO)CCCC(C)CCCC(C)C (centres unmarked) [Example 109, mono-O-(5,9,13-trimethyltetradec-4-enyl)pentaerythritol]",–,–,0.98,–
"CC(=CCC(=O)OCC(O)CO)CCCC(C)CCCC(C)C (centres unmarked) [Example 120, mono-O-(4,8,12-trimethyltridec-3-enoyl)glycerol]",–,–,–,cubic liquid crystal that belong to the crystallographic space group Pn3m
"CC(=CC(=O)OCC(O)CO)CCCC(C)CCCC(C)C (centres unmarked) [Example 146, mono-O-(3,7,11-trimethyldodec-2-enoyl)glycerol]",–,–,0.45,cubic liquid crystal that belong to the crystallographic space group Pn3m

# More lines, main results first:
Viscosity [1] [Pa·s],Lattice constant (ac) of the cubic liquid crystal [2] [nm],Viscosity (Pas · sec) [3] [Pas · sec],Compound,Type of liquid crystal formed (SAXS peak ratio) [2]
3.2,8.9,–,"CC(=CCCCOC(CO)C(O)CO)CCCC(C)CCCC(C)CCCC(C)C (centres unmarked) [2-O-(5,9,13,17-tetramethyloctadec-4-enyl)erythritol]",cubic liquid crystal that belong to the crystallographic space group Pn3m
1.7,7.80,–,"CC(=CCCC(=O)OCC(CO)(CO)CO)CCCC(C)CCCC(C)CCCC(C)C (centres unmarked) [Example 1, mono-O-(5,9,13,17-tetramethyloctadec-4-enoyl)pentaerythritol]",cubic liquid crystal that belong to the crystallographic space group Pn3m
2.0,–,–,"CC(=CCCC(=O)OC[C@H](O)[C@H](O)CO)CCCC(C)CCCC(C)CCCC(C)C (some centres unmarked) [Example 2, mono-O-(5,9,13,17-tetramethyloctadec-4-enoyl)erythritol]",reverse hexagonal liquid crystal
–,8.9,–,"CC(=CCCCOC1OCC(O)C(O)C1O)CCCC(C)CCCC(C)CCCC(C)C [Example 9, 1-O-(5,9,13,17-tetramethyloctadec-4-enyl)-D-xylopyranoside]",cubic liquid crystal that belong to the crystallographic space group Pn3m
–,–,10.6,"CC(=CC(=O)OCC(CO)(CO)CO)CCCC(C)CCCC(C)CCCC(C)C (centres unmarked) [Example 67, mono-O-(3,7,11,15-tetramethylhexadec-2-enoyl)pentaerythritol]",–
–,–,9.5,"CC(=CC(=O)OCC(O)COCC(O)CO)CCCC(C)CCCC(C)CCCC(C)C (centres unmarked) [Example 68, mono-O-(3,7,11,15-tetramethylhexadec-2-enoyl)diglycerol]",–
–,–,4.0,"CC(=CCOCC(CO)(CO)CO)CCCC(C)CCCC(C)CCCC(C)C (centres unmarked) [Example 82, mono-O-(3,7,11,15-tetramethylhexadec-2-enyl)pentaerythritol]",–
–,–,0.48,"CC(=CCCC(=O)OCC(O)CO)CCCC(C)CCCC(C)C (centres unmarked) [Example 92, mono-O-(5,9,13-trimethyltetradec-4-enoyl)glycerol]",mixture of a cubic liquid crystal that belong to the crystallographic space group Pn3m and a reverse hexagonal liquid crystal
–,–,10.5,"CC(=CCCC(=O)OCC(O)COCC(O)CO)CCCC(C)CCCC(C)C (centres unmarked) [Example 95, mono-O-(5,9,13-trimethyltetradec-4-enoyl)diglycerol]",–
–,–,1.7,"CC(=CCCCOCC(O)COCC(O)CO)CCCC(C)CCCC(C)C (centres unmarked) [Example 110, mono-O-(5,9,13-trimethyltetradec-4-enyl)diglycerol]",–
–,–,7.1,"CC(=CC(=O)OC[C@H](O)[C@H](O)CO)CCCC(C)CCCC(C)C (some centres unmarked) [Example 147, mono-O-(3,7,11-trimethyldodec-2-enoyl)erythritol]",–
–,–,6.9,"CC(=CC(=O)OCC(O)COCC(O)CO)CCCC(C)CCCC(C)C (centres unmarked) [Example 149, mono-O-(3,7,11-trimethyldodec-2-enoyl)diglycerol]",–
–,–,2.7,"CC(=CCOCC(CO)(CO)CO)CCCC(C)CCCC(C)C (centres unmarked) [Example 163, mono-O-(3,7,11-trimethyldodec-2-enyl)pentaerythritol]",–
–,–,1.1,"CC(=CCOC[C@H](O)[C@@H](O)[C@H](O)CO)CCCC(C)CCCC(C)C (some centres unmarked) [Example 166, mono-O-(3,7,11-trimethyldodec-2-enyl)xylitol]",–
–,–,4.5,"mono-O-(5,9,13,17-tetramethyloctadec-4-enoyl)di glycerol [Example 4]",reverse hexagonal liquid crystal

# Reference: patent publication US8703922B2, “Low-viscosity liquid crystal compound” (Chemgenesis Incorporated, priority 2009, dated 2014)
